In patent US7323456B2, “Carboxylic acid derivatives compounds and agents comprising the compounds as active ingredient” (Ono Pharmaceutical Co., Ltd., priority 2001, dated 2008):

Columns and labels:
human PPAR γ = target: T1, human PPAR γ (Homo sapiens, UniProt P37231); assay: Luciferase assay of PPAR γ agonistic activity (Gal4-PPAR chimeric receptor, CV-1 cells); assay type: cell-based; conditions: compound 10 μM, luciferase activity of troglitazone (10 μM) defined as 1.0, 42 hours
T1 construct: expressed in transfected cells; host or cells: CV-1 cells
T1 sequence (P37231 204-505): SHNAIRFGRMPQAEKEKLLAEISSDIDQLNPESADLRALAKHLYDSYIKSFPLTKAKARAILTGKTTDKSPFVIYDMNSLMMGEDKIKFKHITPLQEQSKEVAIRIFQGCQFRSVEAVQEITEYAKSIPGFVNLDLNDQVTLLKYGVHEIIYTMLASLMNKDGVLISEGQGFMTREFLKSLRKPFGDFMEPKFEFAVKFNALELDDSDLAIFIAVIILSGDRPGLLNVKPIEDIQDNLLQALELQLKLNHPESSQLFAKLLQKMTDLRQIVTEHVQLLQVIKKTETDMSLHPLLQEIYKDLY

human PPAR α = target: T2, human PPAR α (Homo sapiens, UniProt Q07869); assay: Luciferase assay of PPAR α agonistic activity (Gal4-PPAR chimeric receptor, CV-1 cells); assay type: cell-based; conditions: compound 10 μM, luciferase activity of carbacyclin (10 μM) defined as 1.0, 42 hours
T2 construct: expressed in transfected cells; host or cells: CV-1 cells
T2 sequence (Q07869 167-468): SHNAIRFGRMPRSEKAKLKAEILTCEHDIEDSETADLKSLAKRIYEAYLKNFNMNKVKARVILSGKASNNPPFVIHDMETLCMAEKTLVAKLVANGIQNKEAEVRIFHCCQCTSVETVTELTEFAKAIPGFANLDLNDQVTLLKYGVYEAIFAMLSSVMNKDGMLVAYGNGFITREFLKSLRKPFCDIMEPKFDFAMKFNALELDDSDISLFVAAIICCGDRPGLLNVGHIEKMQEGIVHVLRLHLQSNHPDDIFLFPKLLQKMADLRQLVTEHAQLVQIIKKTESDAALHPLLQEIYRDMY

C=CCN(CC(=O)O)Cc1cccc(OCCc2nc(-c3ccc(N4CCCCCC4)nc3)oc2C)c1 [Example 2, 2-(N-allyl-N-(3-(2-(2-(6-(perhydroazepin-1-yl)pyridin-3-yl)-5-methyloxazol-4-yl)ethoxy)benzyl)amino)acetic acid]
Relative Activity to a positive control compound (troglitazone = 1) (human PPAR γ): 11.5
Relative Activity to a positive control compound (carbacyclin = 1) (human PPAR α): 0.9
